Values after ≈ are worked out from the molar mass of the structure shown. Marks after values point to notes of the source that are not given here.
Experiments:
[1] = in vivo; cited from earlier work
FQ-R MRSA = experiment: MIC against FQ-R MRSA isolates; type: cell-based, Staphylococcus aureus; conditions: n = 15 (147), n = 25 (284, 319, gepotidacin); for MIC90: Staphylococcus aureus, MRSA
Mycobacterium avium = experiment: MIC50 against Mycobacterium avium; type: cell-based; conditions: n = 4
Enterococcus spp. = experiment: MIC50/90 against Enterococcus spp.; type: cell-based; conditions: n = 10 (147), n = 20 (others)
Yersinia pestis = experiment: microbe, parasite or virus in culture; type: cell-based
Escherichia coli 25922 = experiment: MIC against Escherichia coli 25922; type: cell-based; conditions: Escherichia coli, 25922
[2] = test system: Mycobacterium chimaera intracellulare group; experiment: MIC50 against Mycobacterium chimaera intracellulare group; type: cell-based; conditions: n = 6
Streptococcus pneumoniae = experiment: MIC50/90 against Streptococcus pneumoniae; type: cell-based; conditions: for MIC50: n = 5 (147), n = 10 (others); for MIC90: n = 10
[3] = test system: Pseudomonas aeruginosa 27853; experiment: MIC against Pseudomonas aeruginosa 27853; type: cell-based
Moraxella catarrhalis = experiment: MIC50/90 against Moraxella catarrhalis; type: cell-based; conditions: n = 10
Burkholderia mallei = experiment: microbe, parasite or virus in culture; type: cell-based; conditions: Burkholderia mallei
[4] = test system: Acinetobacter baumannii 19606; experiment: MIC against Acinetobacter baumannii 19606; type: cell-based
[5] = test system: Burkholderia pseudomallei; experiment: microbe, parasite or virus in culture; type: cell-based
Mycobacterium abscessus = experiment: MIC50/90 against Mycobacterium abscessus; type: cell-based; conditions: Mycobacteroides abscessus; n = 10
Neisseria gonorrhoeae = experiment: MIC50/90 against Neisseria gonorrhoeae; type: cell-based; conditions: Neisseria gonorrhoeae; n = 17 (284, gepotidacin); n = 110 (147)
Staphylococcus aureus = experiment: MIC50/90 against Staphylococcus aureus isolates; type: cell-based; conditions: n = 30 (147), n = 100 (284, 319, gepotidacin)
Bacillus anthracis = experiment: microbe, parasite or virus in culture; type: cell-based; conditions: for MIC50: read-out: Bacillus anthracis MIC50 (μg/mL); for MIC90: read-out: Bacillus anthracis MIC90 (μg/mL)
Streptococcus agalactiae = experiment: MIC50/90 against Streptococcus agalactiae; type: cell-based; conditions: Streptococcus agalactiae; for MIC50: n = 5 (147), n = 10 (others); for MIC90: n = 10
Haemophilus influenzae = experiment: MIC50/90 against Haemophilus influenzae; type: cell-based; conditions: n = 10
[6] = test system: Staphylococcus epidermidis; experiment: MIC50/90 against Staphylococcus epidermidis; type: cell-based; conditions: n = 10
Streptococcus pyogenes = experiment: MIC50/90 against Streptococcus pyogenes; type: cell-based; conditions: for MIC50: n = 5 (147), n = 10 (others); for MIC90: n = 10
Francisella tularensis = experiment: microbe, parasite or virus in culture; type: cell-based
TopoIV/gyrase = TopoIV/gyrase inhibition ratio; type: biochemical
in vivo = conditions: mouse
hERG = hERG (Homo sapiens, UniProt Q12809); experiment: hERG inhibition; type: cell-based
[7] = Human microsomal stability; type: in vitro ADME; conditions: microsomes, read-out: Human microsom. t1/2
S. aureus ATCC 29213 = type: cell-based; conditions: Using S. aureus ATCC 29213
CACO-2 = experiment: Permeability: CACO-2 A->B; type: in vitro ADME
D83N = experiment: MIC against D83N mutant; type: cell-based
K562 = K562 cytotoxicity; type: cell-based; conditions: Homo sapiens
[8] = Mouse microsomal stability; type: in vitro ADME; conditions: microsomes, read-out: Mouse microsom. t1/2
[9] = not given; remark: listed apart in the source
[10] = test system: CYP 1A, 2B6, 2C8, 2C9, 2C19, 2D6, 3A; experiment: CYP inhibition at 10 μM; type: in vitro ADME
5-HT2b = 5-HT2b (Homo sapiens, UniProt P41595); experiment: Safety44 screen at 100 μM: 5-HT2b
Mouse pharmacokinetics = conditions: 284: as free base in immunocompetent mice, 147: no footnote
physchem = conditions: pH 7.4, aqueous buffer, kinetic from dmso stock, Kinetic solubility at pH 7.4-7.5 (μM)
S. aureus USA300 = experiment: MIC against S. aureus USA300; type: cell-based; conditions: Staphylococcus aureus
M121K = experiment: MIC against M121K mutant; type: cell-based
S. aureus CF isolate = experiment: MIC against S. aureus CF isolate; type: cell-based; conditions: Staphylococcus aureus
[11] = Monkey microsomal stability; type: in vitro ADME; conditions: microsomes, read-out: Monkey microsom. t1/2
Pseudomonas aeruginosa = experiment: MIC50 against Pseudomonas aeruginosa isolates; type: cell-based; conditions: n = 8
[12] = Permeability: CACO-2 A->B; type: in vitro ADME; conditions: human, Caco-2
in vitro [13] = conditions: human, plasma
[14] = Permeability: MDCK II A->B; type: in vitro ADME; conditions: dog
Dog microsomal stability = type: in vitro ADME; conditions: microsomes, read-out: Dog microsom. t1/2
Rat microsomal stability = type: in vitro ADME; conditions: microsomes, read-out: Rat microsom. t1/2
in vitro [15] = conditions: mouse, plasma
Escherichia coli = experiment: MIC50 against Escherichia coli isolates; type: cell-based; conditions: n = 8
in vitro [16] = conditions: rat, plasma
S. aureus 29213 = experiment: MIC against S. aureus 29213; type: cell-based; conditions: Staphylococcus aureus
[17] = all channels

Chain of hERG (Q12809 whole entry): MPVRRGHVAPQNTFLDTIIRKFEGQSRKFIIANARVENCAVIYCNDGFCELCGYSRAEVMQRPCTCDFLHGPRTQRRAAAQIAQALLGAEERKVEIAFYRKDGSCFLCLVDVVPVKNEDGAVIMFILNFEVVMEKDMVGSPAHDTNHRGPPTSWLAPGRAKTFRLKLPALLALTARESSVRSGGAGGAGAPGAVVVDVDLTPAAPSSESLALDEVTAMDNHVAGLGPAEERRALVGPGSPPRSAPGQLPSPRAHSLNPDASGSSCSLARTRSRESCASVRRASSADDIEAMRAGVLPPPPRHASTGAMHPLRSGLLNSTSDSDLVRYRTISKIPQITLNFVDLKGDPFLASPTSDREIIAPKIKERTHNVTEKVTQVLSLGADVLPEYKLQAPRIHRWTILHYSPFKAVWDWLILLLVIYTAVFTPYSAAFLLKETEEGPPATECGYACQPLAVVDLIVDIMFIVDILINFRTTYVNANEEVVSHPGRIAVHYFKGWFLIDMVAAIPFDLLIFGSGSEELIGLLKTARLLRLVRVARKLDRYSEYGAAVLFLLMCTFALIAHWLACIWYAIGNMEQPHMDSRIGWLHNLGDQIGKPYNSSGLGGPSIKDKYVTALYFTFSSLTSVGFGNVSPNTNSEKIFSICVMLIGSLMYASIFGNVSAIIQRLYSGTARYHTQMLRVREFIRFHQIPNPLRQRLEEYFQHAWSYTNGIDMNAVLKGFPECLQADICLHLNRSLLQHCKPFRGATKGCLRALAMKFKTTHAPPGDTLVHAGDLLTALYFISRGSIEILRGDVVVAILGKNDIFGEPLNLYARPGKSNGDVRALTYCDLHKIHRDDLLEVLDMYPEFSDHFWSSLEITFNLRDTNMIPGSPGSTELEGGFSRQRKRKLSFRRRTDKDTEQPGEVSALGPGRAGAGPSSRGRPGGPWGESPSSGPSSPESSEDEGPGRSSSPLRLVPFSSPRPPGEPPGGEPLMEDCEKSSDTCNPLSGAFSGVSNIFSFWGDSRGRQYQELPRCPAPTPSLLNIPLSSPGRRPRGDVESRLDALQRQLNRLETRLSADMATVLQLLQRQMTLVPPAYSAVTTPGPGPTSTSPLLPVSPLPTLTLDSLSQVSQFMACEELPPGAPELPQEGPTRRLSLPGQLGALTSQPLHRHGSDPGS
Chain of 5-HT2b (P41595 whole entry): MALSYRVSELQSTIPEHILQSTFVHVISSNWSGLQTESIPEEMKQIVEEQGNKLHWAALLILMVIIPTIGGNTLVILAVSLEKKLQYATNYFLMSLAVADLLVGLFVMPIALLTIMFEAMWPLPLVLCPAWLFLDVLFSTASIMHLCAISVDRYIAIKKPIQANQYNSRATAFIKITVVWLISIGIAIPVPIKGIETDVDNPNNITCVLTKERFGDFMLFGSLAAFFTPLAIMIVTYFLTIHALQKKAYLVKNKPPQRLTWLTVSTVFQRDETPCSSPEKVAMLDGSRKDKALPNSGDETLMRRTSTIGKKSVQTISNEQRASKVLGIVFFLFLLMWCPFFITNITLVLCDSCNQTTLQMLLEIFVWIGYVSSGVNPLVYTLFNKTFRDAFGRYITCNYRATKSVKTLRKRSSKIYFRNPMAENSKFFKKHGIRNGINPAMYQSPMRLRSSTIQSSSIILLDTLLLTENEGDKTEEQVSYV

Compound: NXL-101
- QT-prolongation in clinical studies [1]: withdrawn from clinical studies as a result of QT-prolongation

Compound: O=c1ccc2ncc(=O)n3c2n1C[C@H]3CN1CCC(NCc2cc3c(cn2)OCCC3)CC1 [gepotidacin, reference compound]
- MIC90 (FQ-R MRSA): 0.5 µg/mL (≈ 1.11 µM)
- MIC50 (Mycobacterium avium): 32 µg/mL (≈ 71.3 µM)
- MIC50 (Enterococcus spp.): 2 µg/mL (≈ 4.46 µM)
- MIC90 (Enterococcus spp.): 4 µg/mL (≈ 8.92 µM)
- MIC50 (Yersinia pestis; read-out: Yersinia pestis MIC50 (μg/mL)): 0.12 µg/mL (≈ 0.268 µM)
- MIC90 (Yersinia pestis; read-out: Yersinia pestis MIC90 (μg/mL)): 0.5 µg/mL (≈ 1.11 µM)
- MIC (Escherichia coli 25922): 1 to 2 µg/mL (≈ 2.23 to 4.46 µM)
- MIC50 [2]: > 64 µg/mL
- MIC50 (Streptococcus pneumoniae): 0.12 µg/mL (≈ 0.268 µM)
- MIC90 (Streptococcus pneumoniae): 0.25 µg/mL (≈ 0.557 µM)
- MIC [3]: 8 to 16 µg/mL (≈ 17.8 to 35.7 µM)
- MIC50 (Moraxella catarrhalis): 0.06 µg/mL (≈ 0.134 µM)
- MIC90 (Moraxella catarrhalis): 0.06 µg/mL (≈ 0.134 µM)
- MIC50 (Burkholderia mallei; read-out: Burkholderia mallei MIC50 (μg/mL)): 8 µg/mL (≈ 17.8 µM)
- MIC90 (Burkholderia mallei; read-out: Burkholderia mallei MIC90 (μg/mL)): ≥ 64 µg/mL
- MIC [4]: 32 µg/mL (≈ 71.3 µM)
- MIC50 ([5]; read-out: Burkholderia pseudomallei MIC50 (μg/mL)): 32 µg/mL (≈ 71.3 µM)
- MIC90 ([5]; read-out: Burkholderia pseudomallei MIC90 (μg/mL)): 32 µg/mL (≈ 71.3 µM)
- MIC50 (Mycobacterium abscessus): 16 µg/mL (≈ 35.7 µM)
- MIC90 (Mycobacterium abscessus): 64 µg/mL (≈ 143 µM)
- MIC50 (Neisseria gonorrhoeae): 0.5 µg/mL (≈ 1.11 µM)
- MIC90 (Neisseria gonorrhoeae): 1 µg/mL (≈ 2.23 µM)
- MIC50 (Staphylococcus aureus): 0.25 µg/mL (≈ 0.557 µM)
- MIC90 (Staphylococcus aureus): 0.5 µg/mL (≈ 1.11 µM)
- MIC50 (Bacillus anthracis): 0.5 µg/mL (≈ 1.11 µM)
- MIC90 (Bacillus anthracis): 0.5 µg/mL (≈ 1.11 µM)
- MIC50 (Streptococcus agalactiae): 0.5 µg/mL (≈ 1.11 µM)
- MIC90 (Streptococcus agalactiae): 1 µg/mL (≈ 2.23 µM)
- MIC50 (Haemophilus influenzae): 1 µg/mL (≈ 2.23 µM)
- MIC90 (Haemophilus influenzae): 2 µg/mL (≈ 4.46 µM)
- MIC50 [6]: 0.25 µg/mL (≈ 0.557 µM)
- MIC90 [6]: 0.5 µg/mL (≈ 1.11 µM)
- MIC50 (Streptococcus pyogenes): 0.12 µg/mL (≈ 0.268 µM)
- MIC90 (Streptococcus pyogenes): 0.5 µg/mL (≈ 1.11 µM)
- MIC50 (Francisella tularensis; read-out: Francisella tularensis MIC50 (μg/mL)): 0.12 µg/mL (≈ 0.268 µM)
- MIC90 (Francisella tularensis; read-out: Francisella tularensis MIC90 (μg/mL)): 0.5 µg/mL (≈ 1.11 µM)

Compound: COc1ccc2ncc(F)c(C[C@H](O)[C@H]3OC[C@H](NCc4cc5c(nn4)OCCS5)CO3)c2n1 [Compound 147, reference compound]
- MIC90 (FQ-R MRSA): 0.25 µg/mL (≈ 0.511 µM)
- MIC50 (Enterococcus spp.): 0.25 µg/mL (≈ 0.511 µM)
- MIC90 (Enterococcus spp.): 1 µg/mL (≈ 2.04 µM)
- MIC (Escherichia coli 25922): > 64 µg/mL
- TopoIV/gyrase ratio (TopoIV/gyrase): 16
- Human plasma protein binding (% unbound): 15 % unbound
- Vd (in vivo; Mouse Vdss (L)): 1 L
- bioavailability (in vivo; po, Mouse PK Oral bioavailability (%)): 49%
- IC50 (hERG): 103 µM
- MIC50 (Streptococcus pneumoniae): 0.5 µg/mL (≈ 1.02 µM)
- MIC [3]: > 64 µg/mL
- half-life [7]: 1.57 h
- Resistance freq. (at 8X MIC) (S. aureus ATCC 29213): 2.02 × 10^−9*
- Permeability: CACO-2 A−>B (×10^−6 cm/s) (CACO-2): 5.68 ×10^−6 cm/s
- MIC (D83N): 4 to 8 µg/mL (≈ 8.17 to 16.3 µM)
- IC50 (K562): 153 µM
- half-life [8]: 0.3 to 0.433 h
- Mouse plasma protein binding (% unbound) [9]: 12 % unbound
- MIC [4]: 64 µg/mL (≈ 131 µM)
- CYP inhibition at 10 μM (1A, 2B6, 2C8, 2C9, 2C19, 2D6, 3A) [10]: No issues
- MIC50 (Neisseria gonorrhoeae): > 4 µg/mL
- MIC90 (Neisseria gonorrhoeae): > 4 µg/mL
- MIC50 (Staphylococcus aureus): 0.12 µg/mL (≈ 0.245 µM)
- MIC90 (Staphylococcus aureus): 0.25 µg/mL (≈ 0.511 µM)
- Safety44 screen at 100 μM: 5-HT2b (5-HT2b): 5-HT2b (72%)
- MIC50 (Bacillus anthracis): 2 µg/mL (≈ 4.09 µM)
- MIC90 (Bacillus anthracis): 8 µg/mL (≈ 16.3 µM)
- Mouse PK AUClast, unbound (μg*h/mL) after 50 mg/kg oral dose (Mouse pharmacokinetics; 50 mg/kg oral): 0.9 µg·h/mL
- Mouse Clunbound (Mouse pharmacokinetics): 575 mL/min/kg
- MIC50 (Streptococcus agalactiae): 4 µg/mL (≈ 8.17 µM)
- MIC50 (Streptococcus pyogenes): 0.5 µg/mL (≈ 1.02 µM)
- solubility kinetic (physchem): 69.6 µM (≈ 34.1 µg/mL)

Compound: O=C1COc2ncc(CN[C@H]3CO[C@H](CC4Cn5c(=O)ccc6ccc(F)c4c65)OC3)nc2N1 (stereo partly drawn) [Compound 319, 6-(((2-((9-fluoro-4-oxo-1,2-dihydro-4H-pyrrolo[3,2,1-ij]quinolin-1-yl)methyl)-trans-1,3-dioxan-5-yl)amino)methyl)-2H-pyrazino[2,3-b][1,4]oxazin-3(4H)-one]
- MIC90 (FQ-R MRSA): 0.5 µg/mL (≈ 1.07 µM)
- FQ-R MRSA MIC90 (μg/mL) (FQ-R MRSA): 0.5/0.5 μg/mL
- MIC50 (Enterococcus spp.): 4 µg/mL (≈ 8.56 µM)
- MIC90 (Enterococcus spp.): 8 µg/mL (≈ 17.1 µM)
- MIC (Escherichia coli 25922): 16 µg/mL (≈ 34.2 µM)
- TopoIV/gyrase ratio (TopoIV/gyrase): 0.65
- Human plasma protein binding (% unbound): 23 % unbound
- MIC (S. aureus USA300): 0.5 µg/mL (≈ 1.07 µM)
- MIC50 (Streptococcus pneumoniae): 1 µg/mL (≈ 2.14 µM)
- MIC90 (Streptococcus pneumoniae): 2 µg/mL (≈ 4.28 µM)
- MIC (M121K): 4 µg/mL (≈ 8.56 µM)
- MIC [3]: 64 µg/mL (≈ 137 µM)
- MIC (S. aureus CF isolate): 0.25 µg/mL (≈ 0.535 µM)
- half-life [7]: > 2 h
- half-life [11]: > 2 h
- MIC50 (Pseudomonas aeruginosa): 16 µg/mL (≈ 34.2 µM)
- Papp A→B [12]: 0.8 ×10⁻⁶ cm/s
- MIC (D83N): 4 µg/mL (≈ 8.56 µM)
- half-life (in vitro [13]): 2.18 h
- IC50 (K562): 135 µM
- Papp A→B [14]: 1.96 ×10⁻⁶ cm/s
- half-life [8]: 5.78 h
- half-life (Dog microsomal stability): > 2 h
- half-life (Rat microsomal stability): > 2 h
- Mouse plasma protein binding (% unbound) [9]: 27 % unbound
- MIC [4]: 16 µg/mL (≈ 34.2 µM)
- half-life (in vitro [15]): > 4 h
- MIC50 (Escherichia coli): 16 µg/mL (≈ 34.2 µM)
- MIC50 (Staphylococcus aureus): 0.5 µg/mL (≈ 1.07 µM)
- MIC90 (Staphylococcus aureus): 1 µg/mL (≈ 2.14 µM)
- half-life (in vitro [16]): > 4 h
- MIC50 (Streptococcus agalactiae): 16 µg/mL (≈ 34.2 µM)
- MIC90 (Streptococcus agalactiae): 32 µg/mL (≈ 68.5 µM)
- MIC (S. aureus 29213): 0.5 µg/mL (≈ 1.07 µM)
- Comprehensive in vitro proarrhythmia assay at 100 μM, inhibition [17]: All <25%
- MIC50 (Streptococcus pyogenes): 2 µg/mL (≈ 4.28 µM)
- MIC90 (Streptococcus pyogenes): 8 µg/mL (≈ 17.1 µM)
- solubility kinetic (physchem): 25 µM (≈ 11.7 µg/mL)

Reference: patent US20260226077A1, “TYPE II TOPOISOMERASE INHIBITORS AND METHODS OF MAKING AND USING THEREOF” (Ohio State Innovation Foundation, priority 2023, published 2026)
